Reference: paper PMC7249060, “The Antiproliferative Effects of Flavonoid MAO Inhibitors on Prostate Cancer Cells” (Molecules, 2020)

What was measured:
PC3 cells = experiment: Antiproliferation screen assay, resazurin, 72 h; format: cell-based, human; settings: 50 μM
hMAO-A = target: T1, hMAO-A (Homo sapiens, UniProt P21397); experiment: Michaelis–Menten kinetics / mode of inhibition (MAO-Glow, LDS substrate); format: biochemical; settings: for Alpha parameter (mixed model of enzyme inhibition): GraphPad Prism mixed model; for mode of hMAO-A inhibition: Lineweaver–Burk, alpha analysis; for Vmax of hMAO-A with increasing inhibitor (minimum and maximum average means): inhibitor 0 to IC50 × 4
T1 construct: purchased Sigma-Aldrich Co. (St. Louis, MO, USA)
T1 sequence (P21397 1-527): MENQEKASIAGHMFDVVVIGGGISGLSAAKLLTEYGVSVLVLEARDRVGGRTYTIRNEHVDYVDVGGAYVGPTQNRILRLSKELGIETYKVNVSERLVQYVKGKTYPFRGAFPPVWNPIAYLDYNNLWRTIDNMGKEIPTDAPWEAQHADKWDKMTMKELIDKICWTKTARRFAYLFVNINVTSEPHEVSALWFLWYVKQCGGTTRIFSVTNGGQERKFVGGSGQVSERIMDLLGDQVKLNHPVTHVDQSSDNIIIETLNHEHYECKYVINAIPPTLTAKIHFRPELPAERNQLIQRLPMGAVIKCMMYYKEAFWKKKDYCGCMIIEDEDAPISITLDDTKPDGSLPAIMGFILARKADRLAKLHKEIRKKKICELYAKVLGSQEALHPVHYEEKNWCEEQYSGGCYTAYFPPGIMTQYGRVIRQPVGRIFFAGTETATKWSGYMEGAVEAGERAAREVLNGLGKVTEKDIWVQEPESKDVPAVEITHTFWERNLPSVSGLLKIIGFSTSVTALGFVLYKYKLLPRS
Protocol: The hMAO-A modes of inhibition by KKR21 and KKR11 were investigated using the Michaelis–Menten reaction kinetics and MAO-Glow™ assay. A negative control buffer and seven serially diluted LDS concentrations were prepared from a maximum final of 75 μM. Other negative control buffers and three different concentrations of each KKR were prepared to resemble IC50/4, IC50, and IC50 × 4 final concentrations (final KKR11 of 0.08, 0.31, and 1.24 μM, and final KKR21 of 0.005, 0.019, and 0.076 μM, respectively). Each KKR was mixed with the isozyme in a 2:1 ratio volume for a final concentration of 0.44 U/mL. The reactions were initiated by adding 37.5 μL of the prepared mixture to 12.5 μL LDS substrate in the 96-well plates. Opaque plates were incubated at 37 °C for 60 min. The enzymatic reaction was terminated by adding 50 μL RLDR to the plates and then was re-incubated for 30 min at RT. The generated ALU was read on the Bio-Tek Synergy HTX Multi-Reader.
The Vmax and Km were calculated from the averaged X and Y intercepts of Lineweaver–Burk (LWB) linear regressions that were analyzed from the Michaelis–Menten curve data. Vmax = 1/Y-intercept, Km = −1/X-intercept(2)
Inhibitor-constant (Ki) was calculated from Cheng–Prosuff’s equation Ki (comp) = IC50/(1+[S]/Km)(3)

LNCaP cells = experiment: Viability screen assay, resazurin, 24 h; format: cell-based, human; settings: 50 μM, 90% viability as margin of cytotoxicity
Protocol: We examined the cytotoxic effects of all 20 synthesized KKRs on the three human PCa cell lines LNCaP, DU145, and PC3, after a 24 h exposure period. Non-toxic TAX was used for comparison. Briefly, cultured cells were seeded in black transparent bottom 96-well microplates at 50,000 cells/175-µL/well in experimental media (RPMI1640 for LNCaP, EMEM for DU145, and DMEM/F12K for PC3), supplied with 5% FBS and 1% P/S. Wells of media without cells were considered blanks and negative controls. The plates were incubated overnight at 37 °C in 5% CO2 to allow cell attachment. For each compound, a working solution of 8X KKR in sterile […] HEPES in HBSS pH buffer of 7.4 was prepared for a final concentration of 50 μM each. The three attached cell types were treated immediately with the related buffer being added to the control wells. A sterile fluorescence-based solution of the resazurin reagent of 0.5 mg/mL in HBSS was prepared. After 24 h, the cells were exposed to 15% v/v of the sterile resazurin reagent, and the plates were re-incubated for 4.5 h to allow redox reaction. All plates were read under 530/590-nm excitation/emission wavelengths using Bio-Tek Synergy HTX Multi-reader as a microplate fluorescence reader.

[1] = competitive model, Ki = IC50/(1 + [S]/Km)

Row | Ki (hMAO-A; Cheng–Prosuff's equation) [nM] | Alpha parameter (mixed model of enzyme inhibition) (hMAO-A) | mode of hMAO-A inhibition (hMAO-A) | Ki (hMAO-A; [1]) [nM] | Vmax of hMAO-A with increasing inhibitor (minimum and maximum average means) (hMAO-A) | Compound | antiproliferative effect in screen (PC3 cells) | cytotoxicity / cell viability (LNCaP cells)
1 | ≤ 7.4 | >>1 | reversible competitive inhibition | 1.7 | 1.38 × 10^−6–1.43 × 10^−6 U/mL/h | O=c1cc(-c2ccccc2)oc2cc(Cl)c(Cl)cc12 [KKR21, 6,7-dichloro-2-phenyl-4H-chromen-4-one] | no effects on any of the screened PCa cell models | 
2 |  |  |  |  |  | O=c1c(O)c(-c2ccccc2)oc2c(Cl)cc(Cl)cc12 [KKR7, 6,8-dichloro-3-hydroxy-2-phenyl-4H-chromen-4-one] |  | affected the LNCaP cells
3 | ≤ 7.4 | >>1 | reversible competitive inhibition | 7.4 | 3 × 10^−6–4 × 10^−6 U/mL/h | COc1cc(O)c(C(=O)/C=C/c2ccc(Cl)c(Cl)c2)c(OC)c1 [KKR11, (E)-3-(3,4-dichlorophenyl)-1-(2-hydroxy-4,6-dimethoxyphenyl)prop-2-en-1-one] |  | 
4 |  |  |  |  |  | COc1cc(OC)c2c(=O)c(O)c(/C=C/c3cc(OC)c(OC)c(OC)c3)oc2c1 [KKR2A, (E)-3-hydroxy-5,7-dimethoxy-2-(3,4,5-trimethoxystyryl)-4H-chromen-4-one] | no effects on any of the screened PCa cell models | 
